“Also recorded” adds a separate entry of the source.
Assays:
ERα = system: ERα; set-up: method as in doi:10.1351/pac200375091197; conditions: cited from earlier work
OVX and ORX mice = system: OVX and ORX mice; set-up: method as in doi:10.1351/pac200375091197; conditions: cited from earlier work
[1] = biological target: T1, human estrogen receptor α (ERα) (Homo sapiens, UniProt P03372); test: Competitive binding assay using [6,7-3H]17β-estradiol and human recombinant ERα (nitrocellulose filter binding); conditions: for RBA (relative binding affinity): binding affinity of E2 taken as 100, estimated from sigmoidal dose-response curves
T1 sequence (P03372 1-595): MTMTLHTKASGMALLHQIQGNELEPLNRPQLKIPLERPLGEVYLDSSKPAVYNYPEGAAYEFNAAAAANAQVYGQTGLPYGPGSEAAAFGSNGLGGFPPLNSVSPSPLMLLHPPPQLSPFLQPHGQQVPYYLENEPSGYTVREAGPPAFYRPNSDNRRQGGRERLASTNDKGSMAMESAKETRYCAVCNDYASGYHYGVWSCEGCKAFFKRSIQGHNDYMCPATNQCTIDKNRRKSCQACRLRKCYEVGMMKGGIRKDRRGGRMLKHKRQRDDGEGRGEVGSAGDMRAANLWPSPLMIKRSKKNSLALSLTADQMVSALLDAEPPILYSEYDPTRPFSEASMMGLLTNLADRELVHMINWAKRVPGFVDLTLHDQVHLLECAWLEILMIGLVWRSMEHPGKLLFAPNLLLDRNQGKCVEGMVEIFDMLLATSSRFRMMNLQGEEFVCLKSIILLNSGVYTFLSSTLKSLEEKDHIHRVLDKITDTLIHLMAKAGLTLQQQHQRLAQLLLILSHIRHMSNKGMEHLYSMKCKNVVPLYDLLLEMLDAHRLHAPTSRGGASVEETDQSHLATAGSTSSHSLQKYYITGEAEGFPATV
Procedure: The ligand binding activity of human estrogen receptor α (ER α) was determined by a nitrocellulose filter binding assay method. […] Radioactivity that remained in the membrane was measured in Atomlight by using a liquid scintillation counter.
All binding assays were performed in duplicate (n = 2).

MCF-7 cells = test: MCF-7 cell proliferation assay (WST-8), in the presence or absence of 0.1 nM E2; type: cell-based, human; conditions: for EC50: estrogenic activity, absence of E2, four days; for Emax / IC50: MCF7; for Emax: read-out: Emax (maximal efficacy toward cell proliferation); for IC50: proliferation induced by 0.1 nM of E2, read-out: IC50 (inhibition of MCF-7 cell proliferation)
Procedure: Table 1 summarizes the EC50, IC50, and Emax values estimated from the MCF-7 cell proliferation assays. Emax represents the maximal efficacy of each compound toward cell proliferation and is an index of ER partial agonistic activity. Emax was estimated relative to that of E2, which was taken as 100.
The human breast adenocarcinoma cell line MCF-7 was routinely cultivated in DMEM supplemented with 10% FBS and 100 IU/mL penicillin and […] streptomycin at 37 °C in a 5% CO2 humidified incubator. Before an assay, MCF-7 cells were switched to DMEM (low glucose phenol red-free supplemented with 5% FBS, and 100 IU/mL penicillin and […] streptomycin). Cells were trypsinized from the maintenance dish with phenol red-free trypsin-EDTA and seeded in a 96-well plate at a density of 2000 cells per final volume of 100 μL DMEM supplemented with 5% stripped FBS and 100 IU/mL penicillin and […] streptomycin. After 24 h, the medium was removed and 90 μL of fresh medium and 10 μL of drug solution, supplemented with serial dilutions of test compounds or DMSO as dilute control in the presence or absence of 0.1 nM E2, were added to triplicate microcultures. Cells were incubated for four days. At the end of the incubation time, number of cells was counted by using the WST-8, which was added to microcultures 10 μL each, and they were incubated for 2–4 h. The absorbance at 450 nm was measured. This parameter relates to and number of living cells in the culture.

ER = system: ER; set-up: method as in PMID 15943468; conditions: cited from earlier work
[2] = Homo sapiens, relative to E2, taken as 100

| Compound | RBA (relative binding affinity) [1] [%] | EC50 (MCF-7 cells; Homo sapiens, MCF7, 96 h) [nM] | melting point [°C] | Estrogenic / antiestrogenic activity toward MCF-7 (in words) (MCF-7 cells) | Binding to ERα (in words) [1] | Emax (MCF-7 cells; [2]) [%] | also measured |
| --- | --- | --- | --- | --- | --- | --- | --- |
| 1,2-bis(4-hydroxyphenyl)-o-carborane [BE360] | – | – | – | – | – | – | Binding affinity toward ERα (in words) (ERα): high binding affinity toward ERα; Estrogenic action in bone and uterus (in words) (OVX and ORX mice): estrogenic action in bone without showing estrogenic action in the uterus |
| Oc1ccc(C2=C(c3ccc(O)cc3)CSC2)cc1 [4a, 3,4-Bis-(4-hydroxyphenyl)-2,5-dihydrothiophene] | – | 390 | – | showed estrogenic activity | moderately bound to ERα | 119 | Binding affinity, times lower than that of E2 [1]: about 100 times |
| [O-][S+]1CC(c2ccc(O)cc2)=C(c2ccc(O)cc2)C1 [4b, 3,4-Bis-(4-hydroxyphenyl)-2,5-dihydrothiophene-1-oxide] | 0.003 | – | 219 to 220 | – | did not bind to the ERα ligand-binding domain (LBD), even at concentrations 1000 times higher than that of E2 | – | – |
| O=S1(=O)CC(c2ccc(O)cc2)=C(c2ccc(O)cc2)C1 [4c, 3,4-Bis-(4-hydroxyphenyl)-2,5-dihydrothiophene-1,1-dioxide] | 0.04 | 300 | 180.5 to 181 | showed estrogenic activity | did not bind to the ERα ligand-binding domain (LBD), even at concentrations 1000 times higher than that of E2 | 130 | – |
| CN(C)CCCOc1ccc(C2=C(c3ccc(O)cc3)CSC2)cc1 [4d, 4-{4-[4-(3-dimethylaminopropoxy)phenyl]-2,5-dihydrothiophen-3-yl}phenol] | 4.0 | – | 177 to 178.5 | acted as ER antagonists | – | – | IC50 (MCF-7 cells; Homo sapiens): 410 nM |
| CN(C)CCCOc1ccc(C2=C(c3ccc(O)cc3)CCSCC2)cc1 [5d, 4-{5-[4-(3-Dimethylaminopropoxy)phenyl]-2,3,6,7-tetrahydrothiepin-4-yl}phenol] | – | – | – | acted as ER antagonists | – | – | IC50 (MCF-7 cells; Homo sapiens): 90 nM |
| Oc1ccc(C2=C(c3ccc(O)cc3)C3CCC2CC3)cc1 [compound 2] | – | – | – | – | – | – | Estrogenic activity (in words) (ER): potent estrogenic activity |
| CC1(C)CC(c2ccc(O)cc2)=C(c2ccc(O)cc2)CC1(C)C [compound 3] | – | – | – | – | – | – | Estrogenic activity (in words) (ER): acted as a partial agonist |

Continued, in another order:

| RBA (relative binding affinity) [1] [%] | EC50 (MCF-7 cells; Homo sapiens, MCF7, 96 h) [nM] | melting point [°C] | Compound | Estrogenic / antiestrogenic activity toward MCF-7 (in words) (MCF-7 cells) | Binding to ERα (in words) [1] | Emax (MCF-7 cells; [2]) [%] | also measured |
| --- | --- | --- | --- | --- | --- | --- | --- |
| 4.9 | – | – | 3,4-Bis (4-hydroxyphenyl)-2,3,6,7-tetrahydrothiepine [5a] | acted as an agonist toward MCF-7 cell proliferation; also recorded: showed estrogenic activity | – | – | EC50 (MCF-7 cells): 48 nM; Emax (maximal efficacy toward cell proliferation) (MCF-7 cells; relative to E2, taken as 100): 99% |
| – | 4700 | – | O=S1(=O)CCC(c2ccc(O)cc2)=C(c2ccc(O)cc2)CC1 [5c, 4,5-Bis (4-hydroxyphenyl)-2,3,6,7-tetrahydrothiepine-1,1-dioxide] | weak estrogenic activity; also recorded: showed estrogenic activity | – | 89 | – |
